Entries after “also recorded” stand apart in the source; their conditions may differ. Where no end group is shown, it is not given here. Bounds are passed on as bounds.

Series [1] concerns α2-gliadin. In words: EPB2 activation and α2-gliadin digestion under acidic conditions. Type of series: biochemical, wheat. An excerpt:
The gene for an endoprotease (EPB2; […] accession number U19384, nt 94-1963) from barley (Hordeum vulgare subsp. vulgare) was subcloned into a pET28b (Invitrogen) vector using BamH1 and EcoR1 insertion sites; the resulting plasmid was designated pMTB1. […] The proprotein was solubilized from the inclusion bodies using 7 M urea. The solubilized protein was purified on a Ni-NTA column. Auto-activation of proEPB2 to its mature, active form was achieved by addition of citrate-phosphate buffer, pH 3 (prepared by mixing 0.1 M sodium citrate and 0.2 M sodium phosphate). Under such acidic conditions, proEPB2 converts rapidly into a mature form with a molecular weight of 30 kDa (FIG. 2). By 72 hours, mature EPB2 undergoes autolysis. N-terminal sequencing yielded an N-terminal sequence beginning with VSDLP.
The pH optimum of proEPB2 activation and α2-gliadin digestion is 2.4-3.5, which can therefore provide a treatment for Celiac Sprue consisting of oral administration of proEPB2.

The subject of series [2] is PQPQLPYPQPQLPY
As to the kind of experiment: Hydrolysis of gliadin peptide by pancreatic proteases. The class given is biochemical, wheat. As to conditions: elastase at 100 ng/μl (non-physiological). An excerpt:
Because BBM exopeptidases are restricted to N- or C-terminal processing, it was investigated if generation of additional free peptide ends by pancreatic enzymes would accelerate digestion.

Series [3] deals with PQPQLPYPQPQLP
As to the kind of experiment: Acceleration of brush border mediated digestion by exogenous endoproteases. The class given is biochemical, wheat. The note with it: 27 ng/μl BBM, one hour. As for the experimental part: FIG. 3. Dose dependent acceleration of brush border mediated digestion by exogenous endoproteases. […] This peptide was digested with 27 ng/μl brush border membranes, either alone, with increasing amounts of exogenous prolyl endopeptidase (PEP, specific activity 28 μU/pg) from Flavobacterium meningosepticum (US Biological, MA), or with additional elastase (E-1250, Sigma, Mo.), bromelain (B-5144, Sigma, Mo.) or papain (P-5306, Sigma, Mo.) (12). After one hour, the fraction of remaining (SEQ ID NO:4) […] (compared to the initial amount at t=0 min) was analyzed and quantified as in FIG. 1.
Alerted by the high proline content as a hallmark of most immunogenic gliadin peptides, a proline-specific endopeptidase was tested for the generation of new, free peptide termini. A literature search on available proteases led to the identification of prolyl endopeptidase (PEP) from Flavobacterium meningosepticum, which is specific for the C-terminal cleavage of prolines and readily available from recombinant sources (Yoshimoto et al. (1991) J. Biochem. 110, 873-8). The stable (SEQ ID NO:4) […] intermediate was digested with BBM in the presence of exogenous PEP. […] As little as 3.5 pg PEP/27 ng BBM protein was sufficient to double the extent of proteolysis of this gliadin fragment compared to incubation with BBM alone. In comparison, other commonly used proteases like papain, bromelain or porcine elastase were much less efficient, requiring 30-fold (papain) or 3000-fold (bromelain, elastase) higher amounts of enzyme compared to PEP to give similar results. Their proteolysis was restricted to the cleavage of the Gln^4-Leu^5 and/or Gln^11-Leu^12 bonds.
A similar preferential cleavage was found for (SEQ ID NO:1) QLQPFP^↓QPQLPY. This is in agreement with the preference of this prolyl endopeptidase for a second proline in the S2′ position (Bordusa and Jakubke (1998) Bioorg. Med. Chem. 6, 1775-80). Based on this P^↓XP motif and on the present data, up to 16 new, major cleavage sites can be predicted in the α2-gliadin sequence, a major source of immunodominant epitopes identified thus far upon PEP treatment. All of them are located in the critical N-terminal part. The internal cleavage by PEP can be expected to generate additional (otherwise inaccessible) substrates for DPP IV and DCP thereby complementing the natural assimilation process of gliadins by the BBM. Thus, the specificity of prolyl endopeptidase is ideally suited for detoxification of persistent immunoactive gliadin peptides in Celiac Sprue.

In series [4] the test system is rat brush border membrane (BBM) peptidases. Type of series: in vitro ADME. As for the experimental part:
To investigate the digestion of gluten, liquid chromatography coupled mass spectroscopy analysis (LC-MS-MS) was utilized to investigate the pathways and associated kinetics of hydrolysis of immunodominant gliadin peptides treated with rat BBM preparations. Because the rodent is an excellent small animal model for human intestinal structure and function, rat BBM was chosen as a suitable model system for these studies.
BBM fractions were prepared from rat small intestinal mucosa as described in Ahnen et al. (1982) J. Biol. Chem. 257, 12129-35. […] No proline aminopeptidase (EC 3.4.11.5) or prolyl endopeptidase activity (PEP, EC 3.4.21.26) activity was detectable (<5 μU/μg). Alkaline phosphatase and sucrase were used as control BBM enzymes with activities of 66 μU/μg and 350 μU/μg, respectively.
BBM fractions were partially purified from the small intestinal mucosa of adult female rats maintained on an ad libitum diet of wheat-based standard rodent chow. Total protein content was determined by a modified method of Lowry with BSA as a standard. Alkaline phosphatase activity was determined with nitrophenyl phosphate. Sucrase activity was measured using a coupled glucose assay. […] PEP activity was determined continuously with 0.4 mM Z-Gly-Pro-pNA in PBS:H2O:dioxane (8:1.2:0.8) at 30° C. One unit is the consumption of 1 μmol substrate per minute.
Proteolysis with the BBM preparation was investigated using the peptide (SEQ ID NO:1) […], a product of chymotryptic digestion of α-9 gliadin (Arentz-Hansen et al. (2000) J. Exp. Med. 191, 603-12). […] It was subjected to BBM digestion, followed by LC-MS-MS analysis. A standard 50 μl digestion mixture contained 100 μM of synthetic peptide, 10 μM tryptophan and Cbz-tryptophan as internal standards, and resuspended BBM preparations with a final protein content of 27 ng/μl and exogenous proteins, as indicated, in phosphate buffered saline. After incubation at 37° C. for the indicated time, the enzymes were inactivated by heating to 95° C. for 3 minutes. The reaction mixtures were analyzed by LC-MS (SpectraSystem, ThermoFinnigan) using a C18 reversed phase column (Vydac 218TP5215, 2.1×150 mm) with water:acetonitrile:formic acid (0.1%):trifluoroacetic acid (0.025%) as the mobile phase (flow: 0.2 ml/min) and a gradient of 10% acetonitrile for 3 minutes, 10-20% for 3 minutes, 20-25% for 21 minutes followed by a 95% wash. Peptide fragments in the mass range of m/z=300-2000 were detected by electrospray ionization mass spectroscopy using a LCQ ion trap and their identities were confirmed by MSMS fragmentation patterns.
BBM fractions were prepared from rat small intestinal mucosa.

Series [5] can be described thus: In vivo perfusion of peptides through rat jejunum. The note with it: 15-20 cm jejunum segment, residence time 20 min. As for the experimental part: FIG. 5. In vivo brush border membrane digestion of peptides.
In Vivo Endopeptidase Activity. An adult (female or male) rat was anesthetized and maintained at 36-37° C. during the entire surgical procedure. The peritoneal cavity was opened, and a small incision was made at the beginning and the end of a 15-20 cm jejunum segment. Polyethylene catheters were inserted and secured into the two ends. The input catheter was connected with a pump-driven syringe filled with a solution. The jejunum segment was perfused initially with PBS buffer to remove any residual debris at a flow rate of 0.4 ml/min. Purified peptide solutions (peptide concentration ranges from 25-100 μM) were then perfused at 0.4 ml/min through the jejunum segment with a 10-40 min residence time. In the case of a co-perfusion, the input catheter is connected with two simultaneous syringes, one with a peptide solution and the other with the prolyl endopeptidase solution (concentration ranges from 50-500 μU/μl). Fluid from the output catheter was collected into small centrifuge tubes in dry ice for subsequent analysis. The collected digestive products were analyzed by HPLC on a C18 column.

For series [6], the system named is Lactobacillus helveticus PEP (Genbank ID#321529).
In series [7] the test system is pepsin (1:100 w/w ratio), trypsin (1:100), chymotrypsin (1:100), elastase (1:500) and carboxypeptidase (1:100). In words: composite gastric/pancreatic enzymatic digestion.
The subject of series [8] is chymotrypsin. As to the kind of experiment: gastric and pancreatic proteases, chymotrypsin playing a major role.
Series [9] concerns FM PEP (recombinant prolyl endopeptidase from Flavobacterium meningosepticum). As to the kind of experiment: 0.1 μM FM PEP in PBS buffer. As to conditions: 37° C.
The subject of series [10] is MX PEP (recombinant prolyl endopeptidase from Myxococcus xanthus). As to the kind of experiment: 0.1 μM MX PEP in PBS buffer. As to conditions: 37° C.
In series [11] the test system is pepsin or any pancreatic enzyme. In words: pepsin or any pancreatic enzyme.
Series [12] has as its system prolyl endopeptidase (PEP, specific activity 28 μU/pg) from Flavobacterium meningosepticum (US Biological, MA). In words: 27 ng/μl brush border membranes with exogenous prolyl endopeptidase from Flavobacterium meningosepticum. As to conditions: rat, up to one hour.
Series [13] concerns SC PEP (recombinant prolyl endopeptidase from Sphingomonas capsulata). As to the kind of experiment: 0.1 μM SC PEP in PBS buffer. The note with it: 37° C., up to t=5 min.
Setting [14] is: kidney or brush border membranes.

For the molecule “proEPB2: inactive proprotein form of barley endoprotease EPB2”, in [1], the “pH optimum of proEPB2 activation and α2-gliadin digestion” value is recorded as 2.4-3.5.
Take “elastase: porcine elastase (E-1250, Sigma), pancreatic protease [reference compound]”: the “hydrolysis of PQPQLPYPQPQLPY” value in [2] is reported as “capable of hydrolyzing”. In series [3], the “higher amount of enzyme compared to PEP to give similar results” value (shortened to “higher amount of enzyme compared to PEP”) is reported as 3000 fold.
trypsin: the “hydrolysis of PQPQLPYPQPQLPY” value in [2] was “No proteolysis was detected”.
For QLQPFPQPQLPY, in series [4] (setting [14]), the “apparent half life of disappearance of parent peptide” value is listed as 35 min. Besides, in series [5], the “fraction proteolyzed in the perfusion experiment” value is reported as above 90%.
For the molecule YQEPVLGPVRGPFPIIV, the cleaved bond result in [6] is “P-V and P-I”.
Take LQLQPFPQPQLPYPQPQLPYPQPQLPYPQPQPF: the not cleaved result is “stable product of gastric and pancreatic digestion” in series [7]; “remained intact despite prolonged exposure to proteases” in series [8]. The fragment found result is reported as “(SEQ ID NO:12, aa 1-19) LQLQPFPQPQLPYPQPQLP, first_seen, t=1 min; also recorded: (SEQ ID NO:12, aa 1-14) LQLQPFPQPQLPYP, first_seen, t=1 min; also recorded: (SEQ ID NO:12, aa 1-12) LQLQPFPQPQLP, first_seen, t=1 min; also recorded: QPQPF, first_seen, t=1 min” in [9] and “YPQPQPF, first_seen, t=5 min” in [10].
In the case of bromelain [reference compound], the “higher amount of enzyme compared to PEP” value in series [3] amounted to 3000 fold.
As for RPKHPIKHQ, the cleaved bond entry in [6] is reported as “P-I”.
In the case of WQIPEQSR, in [4] (setting [14]), the half-life of disappearance is listed as around 60 min.
As for PQPQLPYPQPQLP, in series [11], the not cleaved entry is “resistant to proteolysis by pepsin or any pancreatic enzyme”. Moreover, the cleaved bond result in [12] is listed as “Pro8-Gln9, major; also recorded: Pro6-Tyr7, minor”; in [13], “P-Q, t=5 min; also recorded: P-Y, t=5 min”; in series [9] (up to t=5 min), “P-Q, major, t=5 min”; in series [10] (up to t=5 min), “P-Y, major, t=5 min”.
As for “EPB2: cysteine endoprotease from barley (Hordeum vulgare), accession U19384”, in [1] (acidic conditions, mature form), the “digestion of purified α2-gliadin” value is “efficiently digests purified α2-gliadin”. The “time by which mature form undergoes autolysis” value in series [1] (citrate-phosphate buffer, pH 3) was at most 72 h.
For the molecule chymotrypsin, the “hydrolysis of PQPQLPYPQPQLPY” value in [2] was “No proteolysis was detected”.
On to RRLIEDNEYTARG, for which the “clearance of digestive intermediates” value in series [4] is on record as “cleared completely within one hour”. The “apparent half life of disappearance of parent peptide” value in [4] (setting [14]) is on record as 10 min.

B1: papain: papain (P-5306, Sigma) (protein, UniProt P00784 134-345, looked up)
Papain: IPEYVDWRQKGAVTPVKNQGSCGSCWAFSAVVTIEGIIKIRTGNLNEYSEQELLDCDRRSYGCNGGYPWSALQLVAQYGIHYRNTYPYEGVQRYCRSREKGPYAAKTDGVRQVQPYNEGALLYSIANQPVSVVLEAAGKDFQLYRGGIFVGPCGNKVDHAVAAVGYGPNYILIKNSWGTGWGENGYIRIKRGTGNSYGVCGLYTSSFYPVKN
Consider B1, for which the “higher amount of enzyme compared to PEP” value in series [3] is reported as 30 fold.

The values are drawn from patent US8796201B2 (The Board of Trustees of the Leland Stanford Junior …, priority 2002, dated 2014).
